Assay: Assay (I): Determination of Solubility (96-well plate, pH 3.0-11.0, organic solvent 0-70% w/w, UV absorption at 280 nm)
Format: physicochemical
Conditions: Method 1
Description: Assay (I): Determination of Solubility
96-Well Plate Preparation
96-well plates containing target peptide in a solid form were prepared in one of two ways:
Method 1 (evaporation): Addition of 100 μl stock solution of said peptide at a concentration of 4-6 mg/ml to each well of a 96-well half area plate (150 μl well size). Subsequently the solvent was evaporated by applying a vacuum until the solvent was completely removed.
Method 2 (precipitation): Addition of a certain volume of a stock solution of said peptide containing to each well of a 96-well half area plate followed by the addition of a certain volume of concentrated phosphoric acid to obtain a pH of 4.6 followed by addition of a certain volume of ethanol resulting in a final ethanol concentration of 20% v/v. Subsequently the plate was stored at 4° C. for 1 h and then centrifuged at 4,000 rpm for 20 min. Finally the supernatant was removed. The concentration of the stock solution was chosen in a way that the final amount of peptide after supernatant removal was >0.4 mg per well.
In both cases the stock solution was prepared by adding de-ionized water to a certain amount of powder of said peptide followed by a stepwise addition of small amounts of a concentrated sodium hydroxide solution until said peptide was completely in solution.
To determine solubility of a target peptide at different pH and organic solvent concentrations, two different buffer systems were used in independent experiments to cover the whole range from pH 3.0 to pH 11.0. Buffer system 1 covers pH 3.0-7.5 and buffer system 2 covers pH 7.5-11.0. For each buffer system 96 different solvent compositions were premixed in the following way: • 1. A low pH buffer (adjusted to either pH 3.0 or pH 7.5) and a high pH buffer (adjusted to either pH 7.5 or pH 11.0) were mixed at 8 different ratios to obtain values between pH 3.0 and pH 7.5 or pH 7.5 and pH 11.0, respectively. The total volume after mixing was 300 μl. • 2. 12 different amounts of organic solvent were then added to these buffers to obtain organic solvent (e.g. ethanol) concentrations between 0 and 70% w/w. • 3. Water was then added to obtain a total weight of 1.0 g of solvent in each well.
After preparing the 96 different solvent systems, 100 μl of each system was transferred to the 96-well plate containing the solid form of the target peptide (prepared as described in the section “96-well plate preparation”). The plate was then stored at a given temperature (between 5° C. and 70° C.) for a given time on a rotating shaker set to 400 rpm. At regular time intervals the plate was centrifuged (4,000 rpm for 10 min) and a 10 μl sample was taken from each well. The samples were then analysed by UV absorption at 280 nm for peptide quantification. Peptide concentration results are given as UV absorption at 280 nm of the sample subtracted UV absorption at 280 nm of a well comprising 10 μl water.
The buffers used were as follows: • Buffer system 1 (for the pH range from pH 3.0-7.5)
• Buffer system 2 (for the pH ranae from pH 7.5-11.0)
Solubility of liraglutide was determined using Assay (I) described herein. Liraglutide was prepared using Method 1 (evaporation) or Method 2 (precipitation) as described in subsection “96-well plate preparation”.

## CCCCCCCCCCCCCCCC(=O)N[C@@H](CCC(=O)NCCCC[C@H](NC(=O)[C@H](C)NC(=O)[C@H](C)NC(=O)[C@H](CCC(N)=O)NC(=O)CNC(=O)[C@H](CCC(=O)O)NC(=O)[C@H](CC(C)C)NC(=O)[C@H](Cc1ccc(O)cc1)NC(=O)[C@H](CO)NC(=O)[C@H](CO)NC(=O)[C@@H](NC(=O)[C@H](CC(=O)O)NC(=O)[C@H](CO)NC(=O)[C@@H](NC(=O)[C@H](Cc1ccccc1)NC(=O)[C@@H](NC(=O)CNC(=O)[C@H](CCC(=O)O)NC(=O)[C@H](C)NC(=O)[C@@H](N)Cc1cnc[nH]1)[C@@H](C)O)[C@@H](C)O)C(C)C)C(=O)N[C@@H](CCC(=O)O)C(=O)N[C@@H](Cc1ccccc1)C(=O)N[C@H](C(=O)N[C@@H](C)C(=O)N[C@@H](Cc1c[nH]c2ccccc12)C(=O)N[C@@H](CC(C)C)C(=O)N[C@H](C(=O)N[C@@H](CCCNC(=N)N)C(=O)NCC(=O)N[C@@H](CCCNC(=N)N)C(=O)NCC(=O)O)C(C)C)[C@@H](C)CC)C(=O)O [liraglutide, Arg34,Lys26-(N-epsilon-(gamma-L-glutamyl(N-alfa-hexadecanoyl)))-GLP-1(7-37)]
MeCN 50.9% w/w, pH 8.0, 5° C.
  Peptide concentration after 180 min: 2.2 mg/mL
  Peptide concentration after 24 h: >4.0 mg/mL
MeCN 50.9% w/w, pH 8.5, 5° C.
  Peptide concentration after 5 min: 0.6 mg/mL
  Peptide concentration after 180 min: 2.6 mg/mL
  Peptide concentration after 24 h: >4.0 mg/mL
MeCN 50.9% w/w, pH 9.0, 5° C.
  Peptide concentration after 5 min: 0.6 mg/mL
  Peptide concentration after 180 min: 2.0 mg/mL
  Peptide concentration after 24 h: >4.0 mg/mL
MeCN 50.9% w/w, pH 9.5, 5° C.
  Peptide concentration after 5 min: 1.0 mg/mL
  Peptide concentration after 180 min: 2.4 mg/mL
  Peptide concentration after 24 h: >4.0 mg/mL
MeCN 50.9% w/w, pH 10.0, 5° C.
  Peptide concentration after 5 min: 1.5 mg/mL
  Peptide concentration after 180 min: 2.6 mg/mL
  Peptide concentration after 24 h: >4.0 mg/mL
MeCN 50.9% w/w, pH 10.5, 5° C.
  Peptide concentration after 5 min: 0.9 mg/mL
  Peptide concentration after 180 min: 2.1 mg/mL
  Peptide concentration after 24 h: 3.8 mg/mL
MeCN 50.9% w/w, pH 11.0, 5° C.
  Peptide concentration after 5 min: 0.7 mg/mL
  Peptide concentration after 180 min: 2.2 mg/mL
  Peptide concentration after 24 h: >4.0 mg/mL
MeCN 57.3% w/w, pH 8.0, 5° C.
  Peptide concentration after 5 min: 0.5 mg/mL
  Peptide concentration after 180 min: 1.6 mg/mL
  Peptide concentration after 24 h: 3.4 mg/mL
MeCN 57.3% w/w, pH 8.5, 5° C.
  Peptide concentration after 5 min: 0.5 mg/mL
  Peptide concentration after 180 min: 1.6 mg/mL
  Peptide concentration after 24 h: 3.7 mg/mL
MeCN 57.3% w/w, pH 9.0, 5° C.
  Peptide concentration after 5 min: 0.5 mg/mL
  Peptide concentration after 180 min: 1.9 mg/mL
  Peptide concentration after 24 h: >4.0 mg/mL
MeCN 57.3% w/w, pH 9.5, 5° C.
  Peptide concentration after 5 min: 1.0 mg/mL
  Peptide concentration after 180 min: 2.0 mg/mL
  Peptide concentration after 24 h: 4.0 mg/mL
MeCN 57.3% w/w, pH 10.0, 5° C.
  Peptide concentration after 5 min: 1.4 mg/mL
  Peptide concentration after 180 min: 1.6 mg/mL
  Peptide concentration after 24 h: 1.8 mg/mL
MeCN 57.3% w/w, pH 10.5, 5° C.
  Peptide concentration after 5 min: 1.1 mg/mL
  Peptide concentration after 180 min: 1.1 mg/mL
  Peptide concentration after 24 h: 1.6 mg/mL
MeCN 57.3% w/w, pH 11.0, 5° C.
  Peptide concentration after 5 min: 0.9 mg/mL
  Peptide concentration after 180 min: 1.4 mg/mL
  Peptide concentration after 24 h: 2.6 mg/mL
MeCN 63.6% w/w, pH 8.0, 5° C.
  Peptide concentration after 5 min: 0.3 mg/mL
  Peptide concentration after 180 min: 0.6 mg/mL
  Peptide concentration after 24 h: 2.0 mg/mL
MeCN 63.6% w/w, pH 8.5, 5° C.
  Peptide concentration after 5 min: 0.6 mg/mL
  Peptide concentration after 180 min: 0.8 mg/mL
  Peptide concentration after 24 h: 2.1 mg/mL
MeCN 63.6% w/w, pH 9.0, 5° C.
  Peptide concentration after 5 min: 1.4 mg/mL
  Peptide concentration after 180 min: 0.9 mg/mL
  Peptide concentration after 24 h: 2.6 mg/mL
MeCN 63.6% w/w, pH 9.5, 5° C.
  Peptide concentration after 5 min: 0.2 mg/mL

Reference: US20210261642A1, “SOLUBILITY OF GLP-1 PEPTIDE” (Novo Nordisk A/S, priority 2017, published 2021)
